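Method: 48-hour compound exposure of cells in 96-well plates, five concentrations, linear interpolation of endpoints. Abbreviation: GI50, concentration required for 50% inhibition of growth.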 The source made the active and inactive calls. No stated cut-off is given here; in the data, active = GI50 up to about 1.1 µM and inactive = higher.
Columns and labels:
Experiment in all cases: DTP human tumour cell line panel, 48 h
M19-MEL = tested on: M19-MEL
LXFL 529 = tested on: LXFL 529
KM-20L2 = tested on: KM-20L2
DLD-1 = tested on: DLD-1
SNB-78 = tested on: SNB-78
DMS-273 = tested on: DMS-273
HOP-18 = tested on: HOP-18
XF498 = tested on: XF498
RXF 631 = tested on: RXF 631

Measured: GI50

COC(=O)c1c(-c2ccccc2)sc(-c2cccc3ccccc23)c1C(=O)OC
inactive: M19-MEL > 100 µM | LXFL 529 > 100 µM | KM-20L2 > 100 µM | DLD-1 18 µM | SNB-78 > 100 µM | DMS-273 > 100 µM | HOP-18 > 100 µM

Cc1c(/C=N/NC(=O)c2cc(Br)cc(Br)c2O)c(=O)n(-c2ccccc2)n1C
inactive: M19-MEL > 100 µM | LXFL 529 75.9 µM | KM-20L2 58.3 µM | DLD-1 67.1 µM | XF498 17.6 µM | SNB-78 > 100 µM | DMS-273 5.25 µM

COC1=CC(=O)C2C(C1=O)[C@@H]1c3ccccc3OC(C)(C)[C@H]21 (stereo not given in full)
inactive: M19-MEL 20.2 µM | LXFL 529 18.7 µM | KM-20L2 27.1 µM | DLD-1 19.2 µM | XF498 18.1 µM | SNB-78 18.8 µM | DMS-273 22.9 µM

NC(=O)C(=Cc1ccc(CP(=O)(O)O)cc1)C(N)=O
inactive: M19-MEL > 100 µM | LXFL 529 > 100 µM | KM-20L2 > 100 µM | DLD-1 > 100 µM | XF498 > 100 µM | SNB-78 > 100 µM | DMS-273 > 100 µM | HOP-18 > 100 µM

O=C(CC1C(=O)Nc2ccccc2S1(=O)=O)Nc1cccc(Cl)c1 (stereo not given)
inactive: M19-MEL 19.1 µM | RXF 631 19.9 µM | LXFL 529 17.2 µM | KM-20L2 21.1 µM | DLD-1 17.5 µM | XF498 21.3 µM | SNB-78 59.7 µM | DMS-273 14.5 µM

O=C(O)CCSC(=O)Nc1ccc(/N=N/c2ccccc2)cc1
inactive: RXF 631 > 100 µM | LXFL 529 61.1 µM | KM-20L2 > 100 µM | DLD-1 > 100 µM | XF498 > 100 µM | SNB-78 > 100 µM | DMS-273 > 100 µM | HOP-18 > 100 µM

CCOC(=O)C1=C(O)C(=O)c2cc(C)ccc2C1=O
inactive: M19-MEL 16.6 µM | KM-20L2 > 100 µM | DLD-1 > 100 µM | XF498 > 100 µM | SNB-78 > 100 µM | DMS-273 > 100 µM | HOP-18 45.5 µM

Cc1c(N2CCOCC2)nc2ccc(Cl)cc2c1-c1ccccc1
inactive: M19-MEL 85.7 µM | LXFL 529 61.2 µM | SNB-78 > 100 µM | DMS-273 59.8 µM

CCOP(=O)(OCC)/C(C#N)=C\c1ccc(OC(C)=O)cc1
inactive: M19-MEL > 100 µM | LXFL 529 > 100 µM | KM-20L2 > 100 µM | DLD-1 > 100 µM | XF498 > 100 µM | SNB-78 > 100 µM | HOP-18 > 100 µM

COC(=O)/C(C#N)=C(\N)C(Cl)(Cl)Cl
inactive: M19-MEL 2.43 µM | RXF 631 2.78 µM | LXFL 529 2.7 µM | KM-20L2 29.7 µM | DLD-1 1.17 µM | XF498 1.78 µM | SNB-78 6.18 µM | DMS-273 3.45 µM

CC1OC(OC2CCCc3c(O)c4c(c(O)c32)C(=O)c2ccccc2C4=O)CC(N)C1O (stereo not given)
inactive: M19-MEL 1.78 µM | RXF 631 1.5 µM | LXFL 529 1.55 µM | KM-20L2 2.01 µM | DLD-1 1.33 µM | XF498 1.93 µM | SNB-78 1.89 µM

CCCOP1(=O)C=CC(Cl)=C(C)C1 (stereo not given)
inactive: LXFL 529 23.7 µM | KM-20L2 48.1 µM | DLD-1 20.6 µM | XF498 23.6 µM | SNB-78 53.1 µM | HOP-18 50.4 µM

CCCN1CN(C(C(=O)N[C@@H]2C(=O)N3C2SC(C)(C)C3C(=O)O)c2ccccc2)CSC1=S (stereo not given in full)
inactive: M19-MEL > 100 µM | LXFL 529 70.5 µM | KM-20L2 > 100 µM | DLD-1 84.1 µM | XF498 > 100 µM | SNB-78 > 100 µM | DMS-273 48.8 µM | HOP-18 > 100 µM

O=C1CC2(C[C@@H]3CCCCCCCCC[C@@H](C3)C2)N1 (stereo not given in full)
inactive: M19-MEL 15.2 µM | LXFL 529 15.7 µM | KM-20L2 15.6 µM | XF498 12.2 µM | SNB-78 23.4 µM | DMS-273 12.3 µM | HOP-18 10.5 µM

CCOc1ccc(/C=C/C(=O)c2sc(NNC(C)=O)nc2C)cc1
inactive: M19-MEL > 100 µM | KM-20L2 > 100 µM | DLD-1 > 100 µM | SNB-78 > 100 µM | DMS-273 > 100 µM | HOP-18 > 100 µM

COc1nc2nccc-2c2occn12
inactive: M19-MEL > 100 µM | RXF 631 > 100 µM | LXFL 529 > 100 µM | KM-20L2 > 100 µM | DLD-1 > 100 µM | XF498 > 100 µM | SNB-78 > 100 µM | DMS-273 > 100 µM | HOP-18 > 100 µM

O=C1O[B-](c2ccccc2)(c2ccccc2)[NH2+]C1CS (stereo not given)
inactive: M19-MEL 35.3 µM | RXF 631 50.8 µM | LXFL 529 39.9 µM | KM-20L2 64.7 µM | DLD-1 33 µM | XF498 > 100 µM | SNB-78 65.9 µM | DMS-273 34.9 µM | HOP-18 > 100 µM

COc1ccc2cc3[n+](cc2c1O)CCc1cc2c(cc1-3)OCO2 [BERBERRUBINE CHLORIDE]
inactive: M19-MEL > 100 µM | LXFL 529 > 10 µM | KM-20L2 > 100 µM | DLD-1 > 100 µM | XF498 > 100 µM | SNB-78 > 100 µM | HOP-18 > 100 µM

Reference: ChEMBL document CHEMBL1201862, “PubChem BioAssay data set” (2004)
